{"source": "patent US20250318997A1", "about": "“COMPOSITIONS AND METHODS FOR PREVENTING DENTAL CARIES” (THE TRUSTEES OF THE UNIVERSITY OF PENNSYLVANIA, priority 2022, published 2025)", "key": {"[1]": {"assay": "TMB colorimetric assay for peroxidase-like (catalytic) activity / ROS", "conditions": "for effect of the salt on the catalytic activity of Fer: salt 20 (or 30) μg/ml, Fer 20 μg of Fe/ml, pH 4.5, FIGS. 4A-4C", "from_the_text": "To explore whether SnF2 could produce ROS, the 3,3′,5,5′-tetramethylbenzidine (TMB) colorimetric assay was used for peroxidase-like activity following a previously published protocol, with some modifications. TMB is a chromogenic compound that yields a blue color upon oxidation with an absorption peak at 652 nm in the presence of H2O2.\nROS measurement using 3,3′,5,5′-tetramethylbenzidine (TMB) assay: The catalytic activity of Fer+SnF2 was investigated by a colorimetric assay using TMB (Sigma-Aldrich) as a probe, which generates a blue color in the presence of H2O2 after reacting with ROS. Briefly, the stock solution of TMB was made in DMF (25 mg/ml). Fer (0.5 mg of Fe/ml) and SnF2 (0.5 mg/ml, Sigma-Aldrich) were incubated (separately or combined) at room temperature in 0.1 M of sodium acetate buffer (pH 4.5) for 1 h. Afterward, 40 μl of the testing sample (Fer, SnF2, or Fer+SnF2) and 4 μl of TMB (100 μg) were added into 922 μl of 0.1 M sodium acetate buffer (pH 4.5), and absorbance was recorded at 652 nm. Then, 34 μl of H2O2 (1%, v/v) was added. After 10 min additional incubation in the dark, catalytic activities was monitored at 652 nm. For the control, 40 μl of the buffer solution was taken instead of the testing sample. To examine the effect of DMSO, a quencher of hydroxyl radical (·OH), various amounts of DMSO (0-10%) were used. The effect of pH on the catalytic activity of the combined treatment of Fer+SnF2 was determined at three different pH values (4.5, 5.5, and 6.5), as described above. The comparison of the catalytic activity of Fer+NaF and Fer+SnF2 was also conducted using the same protocol as described above, except after adding H2O2, the reaction mixture was incubated only for 5 min.\nSubsequently, 40 μl of the combined mixture of Fer (20 μg of Fe) and BaF2 (20 or 30 μg) and 4 μl of TMB (100 μg) were mixed into 922 μl of 0.1 M sodium acetate buffer (pH 4.5). Afterward, H2O2 (1%) was added. Finally, the absorbance of TMB was monitored at 652 nm after 5 min of incubation. In a similar way, the catalytic activity of SnCl2 (final concentration 20 μg/ml, Sigma-Aldrich) was also investigated. The effect of incubation time on the catalytic activity was investigated after incubating Fer and SnF2 for a predetermined time.\nAdditionally, the catalytic activity of the released iron and nanoparticle pellet was investigated at pH 4.5 via TMB assay."}, "[2]": {"assay": "Hydroxyl radical production by PL using coumarin", "conditions": "pH 4.5, H2O2; FIGS. 3F, 15", "method": "Comparison of hydroxyl radical (·OH) production: ·OH generated by Fer and Fer+SnF2 in 0.1 M sodium acetate buffer (pH 4.5) was compared by PL technique using coumarin (Sigma-Aldrich) as a ·OH trapping molecule. First, stock solution of Fer (0.5 mg of Fe/ml) with or without SnF2 (0.5 mg/ml) was incubated in 0.1 M sodium acetate buffer (pH 4.5) for 1 h. Afterward, Fer (20 μg of Fe/ml) with or without SnF2 (20 μg/ml) was mixed with coumarin (0.1 mM) in a 10 mm path length cuvette, and then H2O2 (1%, v/v) was added to the reaction mixture to initiate the reaction. The PL intensity was recorded at 452 nm at different incubation times with an excitation wavelength of 332 nm. For the control, all the experimental conditions were the same, except that the testing samples were not used."}, "S. mutans biofilm": {"system": "S. mutans biofilm", "assay": "In vitro biofilm model on saliva-coated hydroxyapatite disc: viable cells (CFU) and biomass (dry weight)", "type": "cell-based, Streptococcus mutans UA159", "protocol": "Antibiofilm activity was evaluated using different concentrations of Fer and SnF2 in the presence of H2O2 using the saliva-coated hydroxyapatite disc (tooth enamel mimic) model in the presence of sucrose. Initially, Fer (1 mg of Fe/ml) was mixed with various concentrations of SnF2 (0-250 ppm of F), and the number of viable cells and biomass were determined.\nBiofilms were formed using the saliva-coated hydroxyapatite disc (sHA) model as described elsewhere. Streptococcus mutans UA159, a proven virulent and well-characterized cariogenic pathogen, were grown in ultra-filtered (10 kDa, cutoff; Millipore, Billerica, MA) tryptone-yeast extract (UFTYE) broth at 37° C. and 5% CO2 to mid-exponential phase. Briefly, HA discs (surface area of 2.7±0.2 cm^2; Clarkson Chromatography Inc., South Williamsport, PA) were vertically suspended in 24-well plates using a custom-made wire disc holder and coated with filter-sterilized human saliva for 1 h at 37° C. Each sHA disc was inoculated with ˜2×10^5 CFU of S. mutans per ml in UFTYE containing 1% sucrose at 37° C. and 5% CO2. Topical treatment of Fer and SnF2 or vehicle control was performed twice daily for 10 min at 0, 6, 19, and 29 h. The culture medium was changed twice daily (at 19 h and 29 h). At the end of the experimental period (43 h), the biofilms were placed in 2.8 ml of H2O2 (1%, v/v) for 5 min. After H2O2 exposure, the biofilms were removed and homogenized via bath sonication followed by probe sonication (at an output of 7 W for 30 s). The homogenized suspension was serially diluted and plated onto blood agar plates using an automated EddyJet Spiral Plater (IUL, SA, Barcelona, Spain). The numbers of viable cells in each biofilm were calculated by counting CFU. The remaining suspension was centrifuged at 5500 g for 10 min, the resulting cell pellets were then washed, oven-dried, and weighed. SnF2 and NaF treatment groups were performed according to the same procedure."}, "[3]": {"assay": "Stability of SnF2 in aqueous solution / sodium acetate buffer (photographs, UV-vis)", "conditions": "SnF2 alone, 0.1 M sodium acetate buffer pH 5.5; FIG. 2B", "text": "It is noteworthy that SnF2 has limited stability in aqueous solutions owing to its high susceptibility to hydrolysis and oxidation, requiring chemical additives (e.g., chelating agents) or water removal, which can reduce fluoride bioavailability. […] To further investigate the stability of SnF2 in the presence of Fer, SnF2 (250 ppm of F) was mixed with increasing amounts of Fer in 0.1 M sodium acetate buffer at different pH values.\nThe peak at 4.0-4.2 ppm (denoted as “a”) is attributed to the protons of the carboxymethyl moieties, as determined previously. […] Note that similar ^1H NMR studies of SnF2 and Fer are not possible due to the superparamagnetic nature of Fer interfering with ^1H NMR measurements.\nThe Fer formulation also contains mannitol, which is an antioxidant. Since antioxidants can prevent the oxidation of SnF2, SnF2 was added to various amounts of mannitol (1-10 mg/ml)."}, "[4]": {"assay": "Stability of Fer/SnF2 with citric acid after 1 month at room temperature (photographs, hydrodynamic diameter)", "type": "physicochemical", "protocol": "FIG. 21 provides photographs of Fer+SnF2 when mixed with various amounts of citric acid after 1 month incubation at room temperature."}}}
{"smiles": "[Ba+2].[F-].[F-]", "note": "[BaF2, barium fluoride]", "values": [{"measurement": "effect of the salt on the catalytic activity of Fer", "setting": "[1]", "value": "Neither NaF nor BaF2 increased the catalytic activity of Fer"}]}
{"smiles": "[F][Sn][F]", "note": "[SnF2, stannous fluoride]", "values": [{"measurement": "·OH production (PL intensity of 7-hydroxycoumarin at 452 nm)", "setting": "[2]", "value": "did not produce a noticeable amount of ·OH"}, {"measurement": "growth of S. mutans (bacterial viability)", "setting": "S. mutans biofilm; 1000 ppm of F, compared with NaF, FIG. 9A", "value": "significantly inhibit the growth of S. mutans"}, {"measurement": "biomass", "setting": "S. mutans biofilm; 1000 ppm of F, compared with NaF, FIG. 9B", "value": "reduce biomass"}, {"measurement": "biomass", "setting": "S. mutans biofilm; SnF2 250 ppm of F alone, FIG. 1D", "value": "substantially reduce biomass"}, {"measurement": "appearance of SnF2 solution", "setting": "[3]", "value": "Immediate aggregation"}, {"measurement": "ROS production / catalytic activity (TMB absorption at 652 nm)", "setting": "[1]; pH 4.5, H2O2, FIGS. 3A, 3B", "value": "did not produce a noticeable amount of ROS"}, {"measurement": "effect of post-mixed SnF2 on the catalytic activity of Fer", "setting": "[1]; post-mixed, not pre-mixed and incubated, FIG. 20", "value": "reduced the catalytic activity of Fer"}]}
{"smiles": "[F-].[Na+]", "note": "[NaF, sodium fluoride]", "values": [{"measurement": "effect of the salt on the catalytic activity of Fer", "setting": "[1]", "value": "Neither NaF nor BaF2 increased the catalytic activity of Fer"}]}
{"smiles": "O=C(O)CC(O)(CC(=O)O)C(=O)O", "note": "[citric acid]", "values": [{"measurement": "amount of citric acid that improves the stability of the Fer/SnF2 formulation", "setting": "[4]", "value": "≥ 125", "unit": "µg/mL"}]}
{"smiles": "[Cl][Sn][Cl]", "note": "[SnCl2]", "values": [{"measurement": "effect of the salt on the catalytic activity of Fer", "setting": "[1]", "value": "enhanced the catalytic activity of Fer"}]}
